{
  "source": "patent US20210290597A1",
  "about": "“METHOD OF TREATING A CONDITION ASSOCIATED WITH NEURODEGENERATION USING INHIBITORS OF OAT3” (Neuropore Therapies, Inc., priority 2018, published 2021)",
  "key": {"[1]": {"biological_target": "T1, OAT3 (Homo sapiens, UniProt Q8TCC7)", "T1 construct": "expressed in transfected cells; host or cells: MDCK-II", "T1 sequence (Q8TCC7 1-542)": "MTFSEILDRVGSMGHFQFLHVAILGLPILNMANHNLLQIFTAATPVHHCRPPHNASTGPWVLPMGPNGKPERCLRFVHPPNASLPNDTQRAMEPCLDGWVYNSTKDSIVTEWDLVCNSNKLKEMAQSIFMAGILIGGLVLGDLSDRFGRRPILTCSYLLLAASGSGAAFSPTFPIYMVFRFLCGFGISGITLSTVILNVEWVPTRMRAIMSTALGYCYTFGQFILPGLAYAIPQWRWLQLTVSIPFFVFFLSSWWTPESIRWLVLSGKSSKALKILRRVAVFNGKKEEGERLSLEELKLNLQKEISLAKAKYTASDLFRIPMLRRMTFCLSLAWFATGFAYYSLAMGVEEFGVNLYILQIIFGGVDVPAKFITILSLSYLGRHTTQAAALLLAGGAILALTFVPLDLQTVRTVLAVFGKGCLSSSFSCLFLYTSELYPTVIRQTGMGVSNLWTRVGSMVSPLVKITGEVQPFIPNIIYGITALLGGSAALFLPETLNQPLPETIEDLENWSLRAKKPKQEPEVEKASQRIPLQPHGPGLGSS", "assay": "Further OAT3 uptake inhibition assay (Table 2)", "assay_type": "cell-based", "settings": "human, MDCK-II cells expressing human OAT3, probe 10 μM PAH (p-aminohippurate); compound 1 μM; PAH 10 μM; mean and SD of triplicate", "description": "In a further assay, the effects of several other compounds (including compounds 2, 3, and 4) were assessed against OAT3. The assay was carried out using a similar procedure as described above, using para-aminohippurate (PAH) and estrone-3-sulfate (E3S) as the substrates for measuring OAT3-mediated transport. […] MDCK-II cells were grown in 96-well cell culture plates, and the cell plates are maintained at 37° C. in 5% CO2 atmosphere prior to initiation of the transport experiment. MDCK-II cells were maintained in DMEM with low glucose and 10% FBS. Cells passages up to 40 are seeded at 60K±10K cells/well on 96-well, transwell membrane plates approximately 24 hours before transfection. Transport assays were carried out approximately 48 hours after transfection. Radio-labeled para-aminohippurate ([3H]-PAH) and estrone-3-sulfate (E3S) were used as substrates for measuring OAT3-mediated transport, where the transport of the substrate was determined by radiometric detection. Probenecid was used as a reference inhibitor. Transport study samples were run in triplicate.\nFor uptake assays, the net transporter-mediated uptake rate (V) of the substrate by each SLC transporter was calculated as follows:\nTransporter-mediated uptake rate(pmol/min/cm^2)=((Cellular accumulation in cells expressing the transporter)−(Mean cellular accumulation in control cells))/Incubation time.\nPercent inhibition was calculated by dividing the transporter-mediated uptake rate in presence of the test article or the reference inhibitor by the transporter-mediated uptake rate in presence of vehicle control:\nPercent inhibition=100−(100×(transporter-mediated uptake rate)with inhibitor/(transporter-mediated uptake rate)vehicle control)\nFor uptake assays, statistical analyses using an unpaired t test was performed between transporter-mediated uptake rate or ATP-dependent transport rate of probe substrate with vehicle control and the inhibitor. A p value of <0.05 was considered statistically significant.\nTable 2 summarizes the inhibitory activity of these compounds against OAT3 in the uptake of probe substrate PAH (p-aminohippurate) or E3S (estrone-3-sulfate). The percent inhibition values were determined by testing compounds at a single concentration of 1 μM with a PAH concentration of 10 μM. Data represent the mean and standard deviation of triplicate samples. The IC50 values were calculated by means of a concentration response curve with a compound concentration range of 0.03-10 μM and a probe substrate concentration of 10 μM PAH or 0.1 μM E3S. The percent inhibition at the various concentrations was run in triplicate and the IC50 value was determined by non-linear regression using GraphPad Prism."}, "[2]": {"system": "microtubule-associated protein 1A/1B-light chain 3 (LC3)", "assay": "LC3 immunolabeling, L61 ASYN transgenic mice, 1 month study", "assay_type": "in vivo", "settings": "1, 5 or 10 mg/kg per day i.p.", "description": "Multiple in vivo administration studies of Compound 1 were carried out in the Line 61 (L61) mThy1-alpha-synuclein transgenic mouse model of Parkinson's disease (PD). The mThy1-alpha-synuclein transgenic mouse model overexpresses wild-type human ASYN under the Thy-1 promoter (commonly referred to as Line 61 transgenic mice; Rockenstein et al., 2002). This transgenic mouse develops extensive accumulation of alpha-synuclein (ASYN) in areas relevant to PD (Rockenstein et al., 2002; Chesselet et al., 2012; Games et al., 2013), neurodegeneration including dopaminergic neurodegeneration, reduced dopamine (DA) and TH loss in the striatum (Masliah et al., 2000; Lam et al., 2011), and motor deficits (Fleming et al., 2004). […]\nAlpha-synuclein (ASYN) is a neuronal protein whose dysregulation has been implicated in the pathogenesis of PD. The effects of Compound 1 on alpha-synuclein aggregation were assessed in both L61 ASYN transgenic and non-transgenic mice in a 1 month administration study. […] At the end of one month, the mice were sacrificed, and immunohistochemical (IHC) detection of total alpha-synuclein deposits, insoluble alpha-synuclein deposits (PK+resistant), microtubule-associated protein 1A/1B-light chain 3 (LC3), and monomeric alpha-synuclein levels were assessed in the harvested brain tissues."}, "[3]": {"system": "Translocator Protein (18 kDa) (TSPO)", "assay": "TSPO immunofluorescence, L41 APP transgenic mice", "assay_type": "in vivo", "settings": "5 mg/kg daily i.p.", "description": "Neuroinflammation is associated with increased expression of the 18-kDa translocator protein (TSPO), which is present on the mitochondria of activated microglia, astroglia and macrophages (Crawshaw and Robertson 2017). The effects of Compound 1 on TSPO expression were assessed in both L41 APP transgenic and non-transgenic mice in a 1 month administration study. L41 APP transgenic mice (36 total mice, n=8-11 mice per treatment group) were injected (i.p.) daily with 5 mg/kg of Compound 1 or a vehicle control (5% DMSO+20% Cremphor EL+0.9% normal saline) for […]. Non-transgenic mice (18 total mice, n=8-11 mice per treatment group) were used as a control and were injected daily (i.p.) with 10 mg/kg of Compound 1 (data not shown) or a vehicle control (5% DMSO+20% Cremphor EL+0.9% normal saline) for 1 month. After 30 days, the mice were sacrificed, and immunofluoresence (IF) detection of TSPO were assessed in the harvested brain tissues.\nThe harvested brain tissues were drop fixed using 4% PFA and sectioned on a vibratome, and representative sections corresponding to the neuropil of cortex were assessed for TSPO with standard immunofluorescence (IF) staining."}},
  "data": [
    {"smiles": "O=S(=O)(c1ccc(-n2cn[nH]c2=S)cc1)c1ccc(Cl)c(C(F)(F)F)c1", "note": "[Compound 1, 4-(4-((4-chloro-3-(trifluoromethyl)phenyl)sulfonyl)phenyl)-2,4-dihydro-3H-1,2,4-triazole-3-thione]", "values": [
      {"measurement": "inhibition at 1 μM", "setting": "[1]", "result": 80.3, "unit": "%"},
      {"measurement": "levels of LC3 immunolabeling in cortex and striatum", "setting": "[2]", "result": "increased"},
      {"measurement": "cortical TSPO level vs vehicle-treated Line 41 mice", "setting": "[3]", "result": "reduces the TSPO level in a statistically significant manner"}
    ]}
  ]
}
